What all share (type): cell-based, human
One test concerns A431 cells. In words: In vitro cytotoxicity of taxanes, plating efficiency (clonogenic) assay, A431. The note with it: read-out: IC50 value towards A431 cells. From the text: (§1) The sulfide, disulfide, and sulfhydryl containing taxane drugs of the invention can be evaluated for their ability to suppress proliferation of various human tumor cell lines in vitro. Four adherent cell lines, A431 (human epidermoid carcinoma), SKBR3 (human breast tumor), A549 (human lung carcinoma) and MCF-7 (human breast tumor), and the non-adherent cell line, Namalwa (Burkitt's lymphoma) are used for the assessment of cytotoxicity of these compounds. Cells are exposed to the compounds for 72 hours and the surviving fractions of cells are measured in direct assays.
A431, A549 and MCF-7 cells were plated at different densities in 6-well tissue-culture plates in DMEM medium supplemented with 10% fetal calf serum. Taxane 2′, at varying concentrations, was added and the cells were maintained in a humidified atmosphere at 37° C. and 6% CO2 until colonies of approximately 20 cells or more were formed (6 to 10 days). Control plates contained no taxane. The cells were then fixed with formaldehyde, stained with crystal violet, and counted under a low-magnification microscope. Plating efficiencies were then determined from the colony numbers and surviving fractions of cells were calculated as the ratio of the plating efficiency of the treated sample and the plating efficiency of the control.

The next test has as its system A549 cells. The test is described as follows: In vitro cytotoxicity of taxanes, plating efficiency (clonogenic) assay, A549. Conditions: read-out: IC50 value towards A549 cells.
Description: (§2) The new taxanes and the disulfide containing taxane drugs of the invention can be evaluated for their ability to suppress proliferation of human tumor cell lines in vitro.
as §1
(§3) The cytotoxic potency of taxane 3′ was similarly confirmed. […] The cells were then fixed with formaldehyde, stained with crystal violet, and counted under a low-magnification microscope. Plating efficiencies were then determined from the colony numbers and surviving fractions of cells were calculated as the ratio of the plating efficiency of the treated sample and the plating efficiency of the control.
(§4) The new taxoids and the disulfide containing taxane drugs of the invention were evaluated for their ability to suppress proliferation of human tumor cell lines in vitro. […]
(§5) 18 and 37 was measured as follows. […]

The test system of a further test is MCF-7 cells. In words: In vitro cytotoxicity of taxanes, plating efficiency (clonogenic) assay, MCF-7. Conditions: read-out: IC50 value towards MCF-7 cells.
Description: as §2, §1, §3, §4, §5

By IC50 is commonly meant the point on the concentration scale where inhibition reaches its midpoint.

For “3′-dephenyl-3′-(isobutenyl)-7-(methyldisulfonyl-propanoyl)-docetaxel [Taxane 2′]”, the IC50 with A431 cells was 0.8 nM.

As to `COc1ccc(OC)c(C(=O)OC2C3C4(OC(C)=O)COC4CC(OC(=O)CCSSC)C3(C)C(=O)C(O)C3=C(C)C(OC(=O)C(O)C(C=C(C)C)NC(=O)OC(C)(C)C)CC2(O)C3(C)C)c1` (stereo not drawn) [Taxane 3′, 3′-dephenyl-3′-(isobutenyl)-2-debenzoyl-2-(2,5-dimethoxybenzoyl)-7-(methyldisulfonyl-propanoyl)-docetaxel], the IC50 turned out to be 0.18 nM with A549 cells and 0.063 nM in the test with MCF-7 cells.

The values are drawn from patent publication US7495114B2, “Cytotoxic agents containing novel potent taxanes and their therapeutic use” (Immunogen Inc., priority 2002, dated 2009).
